Assay results published in publication PMC4685510, “A Cell Biologist’s Field Guide to Aurora Kinase Inhibitors” (Frontiers in Oncology, 2015).
Like-named read-outs stand apart in the source and are kept apart here.

Legend:
Assay in all cases: biochemical
Assay type in all cases: biochemical
[1] = target: 363 human kinases (including Aurora A/B/C) (Homo sapiens, UniProt Q04759); details: PKCtheta; 100 nM; read-out: % Enzyme Activity (relative to DMSO controls)
From the text: (§1) However, the Aurora A/B selectivity ratios derived from our in vitro and in vivo data can be compared to prioritize inhibitors.

[2] = target: 363 human kinases (including Aurora A/B/C) (Homo sapiens, UniProt Q02750); details: MEK1; 100 nM; read-out: % Enzyme Activity (relative to DMSO controls)
From the text: as §1

[3] = target: T1, 363 human kinases (including Aurora A/B/C) (Homo sapiens, UniProt O94806); details: PKCnu/PRKD3; 100 nM; read-out: % Enzyme Activity (relative to DMSO controls)
T1 sequence (O94806 1-890): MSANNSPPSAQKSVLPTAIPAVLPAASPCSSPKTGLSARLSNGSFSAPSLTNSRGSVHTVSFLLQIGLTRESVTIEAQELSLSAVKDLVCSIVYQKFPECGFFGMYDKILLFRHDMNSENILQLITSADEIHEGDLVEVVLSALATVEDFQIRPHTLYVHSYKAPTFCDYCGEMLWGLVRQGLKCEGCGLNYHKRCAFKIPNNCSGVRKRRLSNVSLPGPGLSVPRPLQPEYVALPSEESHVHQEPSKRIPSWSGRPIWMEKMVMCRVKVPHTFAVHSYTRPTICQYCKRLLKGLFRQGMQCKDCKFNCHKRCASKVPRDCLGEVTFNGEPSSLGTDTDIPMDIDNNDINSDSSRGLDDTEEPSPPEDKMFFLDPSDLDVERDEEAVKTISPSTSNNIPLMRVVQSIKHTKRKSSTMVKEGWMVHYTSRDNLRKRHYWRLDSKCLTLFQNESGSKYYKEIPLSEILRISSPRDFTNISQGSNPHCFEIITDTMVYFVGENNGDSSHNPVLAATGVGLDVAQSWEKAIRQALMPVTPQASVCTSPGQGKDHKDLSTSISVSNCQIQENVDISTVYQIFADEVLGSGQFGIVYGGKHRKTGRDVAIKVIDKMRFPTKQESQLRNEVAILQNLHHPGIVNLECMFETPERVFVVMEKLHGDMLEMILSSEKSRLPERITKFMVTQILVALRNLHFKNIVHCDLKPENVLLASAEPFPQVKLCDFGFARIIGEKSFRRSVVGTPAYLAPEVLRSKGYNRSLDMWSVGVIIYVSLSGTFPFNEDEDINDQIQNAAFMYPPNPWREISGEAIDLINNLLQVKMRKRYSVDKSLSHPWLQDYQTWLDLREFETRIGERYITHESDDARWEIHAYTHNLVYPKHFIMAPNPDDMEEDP
From the text: as §1

[4] = target: 363 human kinases (including Aurora A/B/C) (Homo sapiens, UniProt Q14680); details: MELK; 100 nM; read-out: % Enzyme Activity (relative to DMSO controls)
From the text: as §1

[5] = target: 363 human kinases (including Aurora A/B/C) (Homo sapiens, UniProt O96017); details: CHK2; [ATP] 20 µM; 100 nM; read-out: % Enzyme Activity (relative to DMSO controls)
From the text: as §1

[6] = target: T2, 363 human kinases (including Aurora A/B/C) (Homo sapiens, UniProt Q8N752); details: CK1a1L; [ATP] 30 µM; 100 nM; read-out: % Enzyme Activity (relative to DMSO controls)
T2 sequence (Q8N752 1-337): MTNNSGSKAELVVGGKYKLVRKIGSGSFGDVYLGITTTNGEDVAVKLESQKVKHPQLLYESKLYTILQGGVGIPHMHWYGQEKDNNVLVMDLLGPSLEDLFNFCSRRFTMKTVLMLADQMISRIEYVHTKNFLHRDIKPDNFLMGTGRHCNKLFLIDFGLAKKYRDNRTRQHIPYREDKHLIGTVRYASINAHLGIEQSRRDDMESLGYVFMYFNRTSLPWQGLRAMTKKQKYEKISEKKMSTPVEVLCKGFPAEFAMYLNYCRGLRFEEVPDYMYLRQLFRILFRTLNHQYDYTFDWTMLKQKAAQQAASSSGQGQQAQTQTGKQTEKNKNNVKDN
From the text: as §1

[7] = target: 363 human kinases (including Aurora A/B/C) (Homo sapiens, UniProt P06241); details: FYN; 100 nM; read-out: % Enzyme Activity (relative to DMSO controls)
From the text: as §1

[8] = target: 363 human kinases (including Aurora A/B/C) (Homo sapiens, UniProt P17948); details: FLT1/VEGFR1; [ATP] 2.5 µM; 100 nM; read-out: % Enzyme Activity (relative to DMSO controls)
From the text: as §1

[9] = target: 363 human kinases (including Aurora A/B/C) (Homo sapiens, UniProt P51957); details: NEK4; 100 nM; read-out: % Enzyme Activity (relative to DMSO controls)
From the text: as §1

[10] = target: 363 human kinases (including Aurora A/B/C) (Homo sapiens, UniProt P24941); details: 100 nM, read-out: % Enzyme Activity (relative to DMSO controls)
From the text: as §1

[11] = target: 363 human kinases (including Aurora A/B/C) (Homo sapiens, UniProt Q16620); details: TRKB; 100 nM; read-out: % Enzyme Activity (relative to DMSO controls)
From the text: as §1

[12] = target: 363 human kinases (including Aurora A/B/C) (Homo sapiens, UniProt P06239); details: LCK; 100 nM; read-out: % Enzyme Activity (relative to DMSO controls)
From the text: as §1

[13] = target: 363 human kinases (including Aurora A/B/C) (Homo sapiens, UniProt P45983); details: JNK1; 100 nM; read-out: % Enzyme Activity (relative to DMSO controls)
From the text: as §1

[14] = target: 363 human kinases (including Aurora A/B/C) (Homo sapiens, UniProt P27448); details: MARK3; 100 nM; read-out: % Enzyme Activity (relative to DMSO controls)
From the text: as §1

[15] = target: 363 human kinases (including Aurora A/B/C) (Homo sapiens, UniProt P15056); details: BRAF; [ATP] 10 µM; 100 nM; read-out: % Enzyme Activity (relative to DMSO controls)
From the text: as §1

[16] = target: 363 human kinases (including Aurora A/B/C) (Homo sapiens, UniProt Q9BUB5); details: MNK1; 100 nM; read-out: % Enzyme Activity (relative to DMSO controls)
363 human kinases (including Aurora A/B/C) (Homo sapiens, UniProt Q9BUB5), sequence (Q9BUB5 whole entry): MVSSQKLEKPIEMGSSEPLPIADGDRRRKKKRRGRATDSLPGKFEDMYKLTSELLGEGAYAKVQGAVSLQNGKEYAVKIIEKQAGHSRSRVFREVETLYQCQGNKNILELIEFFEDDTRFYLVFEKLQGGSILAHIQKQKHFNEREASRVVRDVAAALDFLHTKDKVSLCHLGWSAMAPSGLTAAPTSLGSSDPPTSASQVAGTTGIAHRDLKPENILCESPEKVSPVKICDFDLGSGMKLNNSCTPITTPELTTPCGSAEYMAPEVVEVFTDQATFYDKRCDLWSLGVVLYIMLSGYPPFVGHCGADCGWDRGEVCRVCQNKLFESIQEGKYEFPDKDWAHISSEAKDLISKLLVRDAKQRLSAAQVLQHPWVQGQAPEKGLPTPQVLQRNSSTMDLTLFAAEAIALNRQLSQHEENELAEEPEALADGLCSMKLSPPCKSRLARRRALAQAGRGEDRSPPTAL
From the text: as §1

363 human kinases (including Aurora A/B/C) (Homo sapiens, UniProt Q02750), sequence (Q02750 whole entry): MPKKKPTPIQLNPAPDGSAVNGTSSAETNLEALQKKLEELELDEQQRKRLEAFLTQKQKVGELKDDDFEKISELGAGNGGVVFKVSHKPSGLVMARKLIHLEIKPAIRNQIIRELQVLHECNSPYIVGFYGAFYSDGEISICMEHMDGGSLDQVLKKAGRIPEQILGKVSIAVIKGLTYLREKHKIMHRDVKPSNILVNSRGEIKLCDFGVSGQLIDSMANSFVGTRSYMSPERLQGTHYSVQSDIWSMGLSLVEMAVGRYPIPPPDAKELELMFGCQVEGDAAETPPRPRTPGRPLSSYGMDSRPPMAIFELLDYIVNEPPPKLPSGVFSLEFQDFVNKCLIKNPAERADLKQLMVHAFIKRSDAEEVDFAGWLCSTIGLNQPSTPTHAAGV
363 human kinases (including Aurora A/B/C) (Homo sapiens, UniProt P06241), sequence (P06241 whole entry): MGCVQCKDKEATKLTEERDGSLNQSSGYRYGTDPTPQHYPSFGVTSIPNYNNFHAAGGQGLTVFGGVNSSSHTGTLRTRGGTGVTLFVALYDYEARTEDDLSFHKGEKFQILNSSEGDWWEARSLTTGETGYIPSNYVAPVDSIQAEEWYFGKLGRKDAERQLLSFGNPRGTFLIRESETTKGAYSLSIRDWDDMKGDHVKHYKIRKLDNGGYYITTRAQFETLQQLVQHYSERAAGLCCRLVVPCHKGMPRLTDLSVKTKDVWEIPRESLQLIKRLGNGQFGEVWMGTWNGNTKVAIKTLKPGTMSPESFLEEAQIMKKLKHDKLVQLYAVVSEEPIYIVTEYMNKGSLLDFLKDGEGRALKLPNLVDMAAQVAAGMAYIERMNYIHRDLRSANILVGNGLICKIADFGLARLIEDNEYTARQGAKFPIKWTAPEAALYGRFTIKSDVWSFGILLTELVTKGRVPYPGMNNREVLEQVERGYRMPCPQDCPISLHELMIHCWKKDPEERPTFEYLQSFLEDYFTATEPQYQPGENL
363 human kinases (including Aurora A/B/C) (Homo sapiens, UniProt Q14680), sequence (Q14680 whole entry): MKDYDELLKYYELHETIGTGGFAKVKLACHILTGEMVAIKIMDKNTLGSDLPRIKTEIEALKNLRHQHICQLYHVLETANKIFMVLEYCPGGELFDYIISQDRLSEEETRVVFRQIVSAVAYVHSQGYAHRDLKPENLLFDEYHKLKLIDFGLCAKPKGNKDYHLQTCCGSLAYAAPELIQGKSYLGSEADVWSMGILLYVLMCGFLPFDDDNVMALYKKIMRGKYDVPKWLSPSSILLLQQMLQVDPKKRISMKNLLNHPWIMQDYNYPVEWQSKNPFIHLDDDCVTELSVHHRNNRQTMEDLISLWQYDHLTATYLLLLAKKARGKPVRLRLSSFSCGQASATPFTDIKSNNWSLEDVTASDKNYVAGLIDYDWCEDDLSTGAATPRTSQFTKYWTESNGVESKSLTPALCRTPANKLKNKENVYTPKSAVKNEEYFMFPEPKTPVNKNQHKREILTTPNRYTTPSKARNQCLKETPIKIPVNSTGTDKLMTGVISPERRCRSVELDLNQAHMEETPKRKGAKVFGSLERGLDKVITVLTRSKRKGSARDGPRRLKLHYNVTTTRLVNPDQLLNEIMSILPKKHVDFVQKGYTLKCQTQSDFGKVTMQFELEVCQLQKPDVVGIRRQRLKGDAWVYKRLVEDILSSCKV
363 human kinases (including Aurora A/B/C) (Homo sapiens, UniProt P17948), sequence (P17948 27-1338): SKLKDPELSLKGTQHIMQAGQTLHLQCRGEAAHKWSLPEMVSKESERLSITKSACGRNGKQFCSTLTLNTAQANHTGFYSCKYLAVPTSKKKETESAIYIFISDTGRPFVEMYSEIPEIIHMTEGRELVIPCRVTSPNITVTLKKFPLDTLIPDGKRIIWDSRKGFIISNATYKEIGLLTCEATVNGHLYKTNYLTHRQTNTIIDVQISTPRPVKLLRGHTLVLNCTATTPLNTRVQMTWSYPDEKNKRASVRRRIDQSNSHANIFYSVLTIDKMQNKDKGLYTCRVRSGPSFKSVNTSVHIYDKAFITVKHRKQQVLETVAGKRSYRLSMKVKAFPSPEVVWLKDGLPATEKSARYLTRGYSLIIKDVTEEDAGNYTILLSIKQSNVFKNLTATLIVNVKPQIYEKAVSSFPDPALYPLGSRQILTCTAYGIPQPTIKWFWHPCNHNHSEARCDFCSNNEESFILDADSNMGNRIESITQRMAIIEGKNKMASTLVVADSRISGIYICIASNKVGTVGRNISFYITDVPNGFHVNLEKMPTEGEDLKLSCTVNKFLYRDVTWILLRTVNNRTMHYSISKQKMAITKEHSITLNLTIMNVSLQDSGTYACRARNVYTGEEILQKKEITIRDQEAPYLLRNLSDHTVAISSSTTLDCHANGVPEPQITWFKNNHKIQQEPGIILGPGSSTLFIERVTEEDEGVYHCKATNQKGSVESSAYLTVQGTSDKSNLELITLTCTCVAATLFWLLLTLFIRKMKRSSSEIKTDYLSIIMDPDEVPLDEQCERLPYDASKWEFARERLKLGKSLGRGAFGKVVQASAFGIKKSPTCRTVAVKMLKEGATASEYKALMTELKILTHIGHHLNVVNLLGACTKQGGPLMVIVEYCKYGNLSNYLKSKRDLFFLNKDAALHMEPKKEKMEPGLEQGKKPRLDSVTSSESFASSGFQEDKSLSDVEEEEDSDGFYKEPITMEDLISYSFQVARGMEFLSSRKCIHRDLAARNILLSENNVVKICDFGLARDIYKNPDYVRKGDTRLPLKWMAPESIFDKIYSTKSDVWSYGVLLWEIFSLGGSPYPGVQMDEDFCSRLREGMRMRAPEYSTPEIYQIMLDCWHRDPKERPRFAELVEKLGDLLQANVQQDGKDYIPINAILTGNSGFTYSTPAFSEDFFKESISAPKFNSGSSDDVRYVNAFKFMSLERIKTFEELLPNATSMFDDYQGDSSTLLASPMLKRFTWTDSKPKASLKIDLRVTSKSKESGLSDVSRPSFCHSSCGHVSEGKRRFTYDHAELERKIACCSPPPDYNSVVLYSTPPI
363 human kinases (including Aurora A/B/C) (Homo sapiens, UniProt P51957), sequence (P51957 whole entry): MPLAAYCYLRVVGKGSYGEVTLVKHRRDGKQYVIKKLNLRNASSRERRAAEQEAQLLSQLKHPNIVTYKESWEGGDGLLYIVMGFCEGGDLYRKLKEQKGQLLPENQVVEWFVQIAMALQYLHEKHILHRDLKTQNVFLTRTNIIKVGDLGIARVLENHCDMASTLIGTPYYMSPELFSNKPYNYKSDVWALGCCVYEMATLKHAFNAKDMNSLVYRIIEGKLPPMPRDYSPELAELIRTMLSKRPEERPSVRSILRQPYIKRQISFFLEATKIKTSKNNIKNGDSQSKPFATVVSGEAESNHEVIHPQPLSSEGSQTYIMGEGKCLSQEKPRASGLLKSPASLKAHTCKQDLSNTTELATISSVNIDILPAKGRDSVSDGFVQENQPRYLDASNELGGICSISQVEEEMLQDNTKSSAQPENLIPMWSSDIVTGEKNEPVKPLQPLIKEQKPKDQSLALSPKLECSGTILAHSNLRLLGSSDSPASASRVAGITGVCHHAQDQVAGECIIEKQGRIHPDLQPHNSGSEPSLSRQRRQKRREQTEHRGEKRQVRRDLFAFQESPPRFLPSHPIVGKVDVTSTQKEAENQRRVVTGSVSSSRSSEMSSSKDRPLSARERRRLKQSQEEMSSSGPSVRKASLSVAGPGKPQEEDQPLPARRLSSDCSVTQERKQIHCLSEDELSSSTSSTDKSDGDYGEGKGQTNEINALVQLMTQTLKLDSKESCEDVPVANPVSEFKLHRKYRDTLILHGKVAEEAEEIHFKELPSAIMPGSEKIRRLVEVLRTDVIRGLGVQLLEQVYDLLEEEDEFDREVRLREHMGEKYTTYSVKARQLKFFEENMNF
363 human kinases (including Aurora A/B/C) (Homo sapiens, UniProt O96017), sequence (O96017 whole entry): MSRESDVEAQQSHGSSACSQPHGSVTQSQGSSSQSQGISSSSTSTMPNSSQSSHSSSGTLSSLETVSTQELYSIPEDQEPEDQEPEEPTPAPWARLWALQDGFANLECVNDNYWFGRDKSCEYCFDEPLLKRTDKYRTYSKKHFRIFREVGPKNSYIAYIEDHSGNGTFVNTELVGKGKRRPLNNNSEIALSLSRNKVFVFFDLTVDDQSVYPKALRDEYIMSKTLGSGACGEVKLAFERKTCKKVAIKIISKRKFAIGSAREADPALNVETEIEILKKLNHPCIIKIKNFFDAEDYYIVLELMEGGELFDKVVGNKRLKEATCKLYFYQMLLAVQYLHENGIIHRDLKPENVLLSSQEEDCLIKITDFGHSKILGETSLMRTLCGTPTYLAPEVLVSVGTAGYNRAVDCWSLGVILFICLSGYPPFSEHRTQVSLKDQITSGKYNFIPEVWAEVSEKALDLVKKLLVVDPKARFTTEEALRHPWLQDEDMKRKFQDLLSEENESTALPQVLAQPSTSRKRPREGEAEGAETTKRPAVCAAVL

Compound: CCn1cc(-c2ccnc3[nH]c(-c4cccc(CN(C)C)c4)cc23)c(-c2ccc(NC(=O)N(C)C)cc2)n1 [GSK1070916]
- remaining activity at 0.1 µM [1]: 92.7%
- remaining activity at 0.1 µM [2]: 102%
- remaining activity at 0.1 µM [3]: 76.8%
- remaining activity at 0.1 µM [4]: 95.7%
- remaining activity at 0.1 µM [5]: 99.2%
- remaining activity at 0.1 µM [6]: 108%
- remaining activity at 0.1 µM [7]: 84.3%
- remaining activity at 0.1 µM [8]: 64.4%
- remaining activity at 0.1 µM [9]: 111%
- remaining activity at 0.1 µM ([10]; CDK2/Cyclin A1, [ATP] 100 µM): 89.8%
- remaining activity at 0.1 µM ([10]; CDK2/cyclin A, [ATP] 100 µM): 104%
- remaining activity at 0.1 µM ([10]; CDK2/cyclin E, [ATP] 5 µM): 93%
- remaining activity at 0.1 µM ([10]; CDK2/cyclin O, [ATP] 30 µM): 94.7%
- remaining activity at 0.1 µM [11]: 108%
- remaining activity at 0.1 µM [12]: 72.8%
- remaining activity at 0.1 µM [13]: 98%
- remaining activity at 0.1 µM [14]: 97.2%
- remaining activity at 0.1 µM [15]: 97.1%
- remaining activity at 0.1 µM [16]: 113%
